Consider eleven compounds from patent publication EP4745196A1, “RESIN COMPOSITION” (LG Chem, Ltd., priority 2023, dated 2025).

For series [1] the following is noted: endothermic substance; cited from earlier work.
The nature of series [2]: Measurement of pyrolysis temperature by differential scanning calorimeter. Format: physicochemical. The following applies: endothermic substance; DSC, heating rate 10°C/min, temperature at maximum heat flow. On the procedure:
The endothermic substance may have a pyrolysis temperature of 50°C or more. The pyrolysis temperature of the endothermic substance may be 300°C or less. The pyrolysis temperature may also be referred to as a temperature at which the endothermic substance undergoes an endothermic reaction (endothermic reaction temperature). The pyrolysis may mean that a material is chemically decomposed into a simpler material when heat has been applied thereto. The pyrolysis temperature may mean a temperature at which the pyrolysis occurs. The pyrolysis temperature of the endothermic substance may be 300°C or less, 280°C or less, 260°C or less, 240°C or less, 220°C or less, 200°C or less, 180°C or less, 160°C or less, 140°C or less, 120°C or less, or 100°C or less. The pyrolysis temperature of the endothermic substance may be specifically 50°C or more, 60°C or more, 70°C or more, 80°C or more, 90°C or more, 100°C or more, 120°C or more, 140°C or more, 160°C or more, or 180°C or more. When the endothermic substance is heated to the pyrolysis temperature, it may be decomposed into components constituting the endothermic substance through endotherm. When the pyrolysis temperature of the endothermic substance is within the range, there is no or little endothermic reaction at a normal operating temperature of the battery, and if the thermal runaway of the battery occurs, a cooling effect may be provided to the ignited battery cell through the endothermic reaction (e.g., pyrolysis) of the endothermic substance, and it may be advantageous in terms of delaying thermal transfer to adjacent battery cells. The pyrolysis temperature may be a value measured while increasing the temperature at a rate of 10°C/min using a differential scanning calorimeter (DSC Q2000, TA Corporation). From the differential scanning calorimeter, a graph may be obtained in which the x-axis is temperatures (°C) and the y-axis is heat flows (W/g), and in the graph, the temperature at the point where a heat flow (W/g) value, for example, an absolute value of a heat flow (W/g) is maximum may be set as the pyrolysis temperature.
For endothermic substances used in Examples and Comparative Examples, pyrolysis temperatures were measured while increasing the temperature at a rate of 10°C/min using a differential scanning calorimeter (DSC Q2000, TA Corporation), and the results were described in Table 1. Specifically, 0.2 to 0.5 mg of a sample was placed in a crucible of the differential scanning calorimeter, and then a lid with a single hole penetrated with a punching needle was covered thereon. In a state where the crucible was placed in the center of a press, and a plunger was moved downward by turning a lever until no pressure was further applied downward, the crucible and lid were placed in the differential scanning calorimeter equipment, and a thermal analysis was performed. From the differential scanning calorimeter, a graph with temperature (°C) on the x-axis and heat flow (W/g) on the y-axis could be obtained, and the temperature at the point where the heat flow (W/g) value is maximum in the graph was defined as the pyrolysis temperature.
In general terms: In DSC, transitions show as peaks or steps in heat flow.

The nature of series [3]: Measurement of solubility in water. The following applies: endothermic substance; 20°C, added by 1g to 100 ml of water until precipitate. The series is classed as physicochemical. How it is done:
The endothermic substance may be a water-soluble substance.
Specifically, while the samples were each added by 1g to 100 ml of water at 20°C, the weight of the sample before a precipitate occurred was measured. The presence of the precipitate was visually observed; if no precipitate has occurred, it is observed transparently.

As to `O.O.O.O.O.O.O.O.O.O.O.O.O=S(=O)([O-])[O-].O=S(=O)([O-])[O-].[Al+3].[K+]` [KAl(SO4)2·12H2O], the Thermal conductivity in series [1] is listed as 0.55 W/mK. The compound further gave a Pyrolysis temperature in series [2] of 90 °C.

On to `O.O.O.O.O.O.[Cl-].[Cl-].[Mg+2]` [MgCl2·6H2O], for which the Thermal conductivity in series [1] is recorded as 0.15~0.96 W/mK. In addition, the Pyrolysis temperature in series [2] came out at 107 °C.

For the compound `[Cl-].[K+]` [KCl], the Solubility in water in series [3] is at least 30 g/100ml. Further, the Thermal conductivity in series [1] is 6.53 W/mK. Moreover, the Pyrolysis temperature in series [2] was determined as 770 °C.

`[O]=[Mg]` [MgO] registered a Solubility in water in series [3] of 0 g/100ml. Moreover, in series [1], the Thermal conductivity is recorded as 30 W/mK. Moreover, the Pyrolysis temperature in series [2] came out at 2800 °C.

`[Cl-].[Na+]` [NaCl]: in series [1], the Thermal conductivity was 3.13~3.87 W/mK. In series [2], the Pyrolysis temperature turned out to be 801 °C.

On to `[O]=[Al][O][Al]=[O]` [Al2O3], for which the Solubility in water in series [3] was 0 g/100ml. Further, in series [1], the Thermal conductivity was 18 W/mK. In series [2], this compound showed a Pyrolysis temperature of 2000 °C.

Turning to `[Cl-].[Cl-].[Mg+2]` [MgCl2], in series [1], the Thermal conductivity is reported as 0.5 W/mK. Further, the Pyrolysis temperature in series [2] was determined as 714 °C.

`[Mg+2].[OH-].[OH-]` [Mg(OH)2]: in series [1], the Thermal conductivity is 42~60 W/mK. This compound showed a Pyrolysis temperature in series [2] of 330 °C.

With `OB(O)O` [Example H3BO3, H3BO3], the Thermal conductivity in series [1] is 1 or less W/mK. In series [2], this compound displayed a Pyrolysis temperature of 136 °C.

`[OH][Al]([OH])[OH]` [Al(OH)3]: in series [1], the Thermal conductivity is 26 W/mK. In addition, the Pyrolysis temperature in series [2] was 297 °C.

Regarding `O.O.O.O.O.O.O.O.O.O.O.O.O.O.O.O.O.O.O=S(=O)([O-])[O-].O=S(=O)([O-])[O-].O=S(=O)([O-])[O-].[Al+3].[Al+3]` [Al2(SO4)3·18H2O], the Thermal conductivity in series [1] is listed as 0.24~0.31 W/mK. Also, the Pyrolysis temperature in series [2] came to 102 °C.
